Reference: PMC12022909, “A Multicomponent Reaction-Based Platform Opens New Avenues in Aryl Hydrocarbon Receptor Modulation” (ACS Central Science, 2025)

Test system: IL-19, CXCL1, and CCL26 gene expression
Assay: IL-13 triggered proinflammatory gene expression in HaCaT keratinocytes
Type: cell-based, human
Conditions: IL-13 10 ng/mL
Source text: As AhR activation is beneficial for pathologies including chronic inflammatory skin diseases,[74] we assessed the potential anti-inflammatory role of our ligands by cotreating HaCaT keratinocytes with the proinflammatory cytokine IL-13 and a selection of 6-ICZs (Figure 7a).
Figure 7 Anti-inflammatory effect of the 6-ICZs. (a) Structure of the tested compounds and the control tapinarof (T). (b) IL-13 triggered gene expression of proinflammatory IL-19, CXCL1, and CCL26 expressed as fold of 0.1% DMSO control. HaCaT keratinocytes were treated with IL-13 (10 ng/mL) for 24 h, then either untreated (−) or treated with positive control T (1 μM) or 6-ICZs (1 μM). n = 3–4. For statistical analysis an unpaired t-test was performed and data are shown as mean ± SEM (*, p ≤ 0.05 compared to IL-13 (10 ng/mL)).
Cell culture and treatment
Human HaCaT and HaCaT-AhR-deficient keratinocytes were cultured in DMEM low glucose (1 g/l) medium (PAN Biotech, Aidenbach, Germany) supplemented with 10% (v/v) fetal bovine serum (PAN Biotech) and 1% (v/v) antibiotics/antimycotics (PAN Biotech). […]
Quantitative real-time PCR
The isolation of total RNA, reverse transcription, and quantitative real-time PCR was conducted as described previously.[26] […]
AhR-dependent reporter gene activity was determined in human HepG2 cells stably transfected with an XRE -harboring luciferase plasmid (XRE-HepG2 cells). […]

CCOc1c2[nH]c3ccccc3c2cc2[nH]c3ccccc3c12 [compound 8, 6-ethoxy-ICZ]
anti-inflammatory potency compared with positive control tapinarof (1 μM): slightly more potent than the positive control tapinarof | IL-13-triggered induction of IL-19, CXCL1, and CCL26 gene expression (24 h, compound 1 μM): significantly reduced
